Tests used:
HDAC1 = settings: cited from earlier work
[1] = system: relapsed or refractory non-Hodgkin's lymphoma; test: Anti-tumor activity; assay type: in vivo, Japanese patients
HDAC3 = settings: cited from earlier work
HDAC10 = settings: cited from earlier work
[2] = Cardiovascular assessments; assay type: in vivo, Japanese patients
[3] = 40 mg BIW cohort, seven patients
[4] = NHL other than ATL, 30 mg BIW, 5 patients
[5] = NHL other than ATL, 40 mg BIW, 3 patients

Nc1cc(F)ccc1NC(=O)c1ccc(CNC(=O)/C=C/c2cccnc2)cc1 [HBI-8000, tucidinostat]
Inhibition of HDAC activity (HDAC1): selectively inhibits
Stable disease after the first cycle ([1]; 30 mg BIW cohort): three of six
Disease control (CR + CRu + PR + SD) ([1]; 30 mg BIW cohort, six patients): 66.7%
ORR ([1]; 30 mg BIW cohort, six patients): 16.7%
Objective response ([1]; 40 mg BIW cohort): five of seven
Partial responders with adult T-cell leukemia-lymphoma ([1]; 40 mg BIW cohort): three
Disease control (CR + CRu + PR + SD) [1, 3]: 100%
ORR [1, 3]: 71.4%
Best overall response: PR ([1]; ATL, 30 mg BIW, 1 patient): 0 (0) n (%)
Best overall response: SD ([1]; ATL, 30 mg BIW, 1 patient): 1 (100) n (%)
Disease control (CR, PR or SD) ([1]; ATL, 30 mg BIW, 1 patient): 1 (100) n (%)
Objective response (CR or PR) ([1]; ATL, 30 mg BIW, 1 patient): 0 (0.0) n (%)
Best overall response: PR ([1]; ATL, 40 mg BIW, 4 patients): 3 (75.0) n (%)
Best overall response: SD ([1]; ATL, 40 mg BIW, 4 patients): 1 (25.0) n (%)
Disease control (CR, PR or SD) ([1]; ATL, 40 mg BIW, 4 patients): 4 (100) n (%)
Objective response (CR or PR) ([1]; ATL, 40 mg BIW, 4 patients): 3 (75.0) n (%)
Objective response ([1]; NHL other than ATL, 30 mg BIW cohort): 20%
Best overall response: CR [1, 4]: 0 (0) n (%)
Best overall response: CRu [1, 4]: 1 (20.0) n (%)
Best overall response: PD [1, 4]: 2 (40.0) n (%)
Best overall response: SD [1, 4]: 2 (40.0) n (%)
Disease control (CR, CRu, PR or SD) [1, 4]: 3 (60.0) n (%)
Objective response (CR, CRu or PR) [1, 4]: 1 (20.0) n (%)
Objective response ([1]; NHL other than ATL, 40 mg BIW cohort): 66.7%
Best overall response: CR [1, 5]: 1 (33.3) n (%)
Best overall response: CRu [1, 5]: 1 (33.3) n (%)
Best overall response: PD [1, 5]: 0 (0) n (%)
Best overall response: SD [1, 5]: 1 (33.3) n (%)
Disease control (CR, CRu, PR or SD) [1, 5]: 3 (100) n (%)
Objective response (CR, CRu or PR) [1, 5]: 2 (66.7) n (%)
Responses in patients with ATL ([1]; both cohorts): three out of five
Inhibition of HDAC activity (HDAC3): selectively inhibits
Inhibition of HDAC activity (HDAC10): selectively inhibits
Absolute QTcF >450 ms ([2]; 30 mg BIW cohort): three
QTcF increase of >30 ms from baseline ([2]; 40 mg BIW cohort): three
Absolute QTcF prolonged to >500 ms ([2]; both cohorts): none
QTcF increase >60 ms from baseline ([2]; both cohorts): none
